Earlier results in PubChem BioAssay AID1259409 (Chemical Carcinogenesis Research Information System (CCRIS), 2018).

Test system: rodent chemically induced tumor inhibition, incidence and multiplicity
Assay: CCRIS tumor inhibitor studies
Details: Route [Inhibitor]: ORAL, Promoter: NONE USED
Excerpt: The CCRIS database contains chemical records with carcinogenicity, mutagenicity, tumor promotion, and tumor inhibition test results. It was developed by the National Cancer Institute (NCI). Data are derived from studies cited in primary journals, current awareness tools, NCI reports, and other sources. Test results have been reviewed by experts in carcinogenesis and mutagenesis.
CCRIS provides historical information from the years 1985 - 2011. It is no longer updated.
This is an archive assay for CCRIS tumor inhibitor studies.

Structure (SMILES): CC1=C(CC(=O)O)c2cc(F)ccc2/C1=C\c1ccc(S(C)=O)cc1 (stereo unspecified)
- tumour outcome (control, treated, inhibition, significance) (Carcinogen: 1,2-DIMETHYLHYDRAZINE HYDROCHLORIDE, 306-37-6, Dose [Inhibitor]: 5 MG/KG BW IN DRINKING WATER ADMINISTERED CONCURRENTLY WITH CARCINOGEN FOR 24 WK (STUDY DURATION: 24 WK), Species: MOUSE, Strain/Sex: BALB/FEMALE, Target Tissue: Type of Lesion: COLON: MICROADENOMA, Dose [Carcinogen]: 25 MG/KG BW IN 0.4% EDTA AND 0.9% NORMAL SALINE 1/WK FOR 24 WK): 35/38 (92%), 18/38 (47%), 49%, not calculated
- tumour outcome (control, treated, inhibition, significance) (Carcinogen: 1,2-DIMETHYLHYDRAZINE HYDROCHLORIDE, 306-37-6, Dose [Inhibitor]: 5 MG/KG BW IN DRINKING WATER BEGINNING 10 D POST LAST CARCINOGEN DOSE AND CONTINUING FOR 78 D (STUDY DURATION: 28 WK), Species: MOUSE, Strain/Sex: BALB/FEMALE, Target Tissue: Type of Lesion: COLON: MICROADENOMA, Dose [Carcinogen]: 25 MG/KG BW IN 0.4% EDTA AND 0.9% NORMAL SALINE 1/WK FOR 17 WK): 15/18 (83%), 13/18 (72%), 13%, not calculated
- tumour outcome (control, treated, inhibition, significance) (Carcinogen: 1-METHYL-1-NITROSOUREA, 684-93-5, Dose [Inhibitor]: 0, 0.06% IN A PURIFIED HIGH-FAT (24.6%) DIET FOR 37 WK BEGINNING 1 WK POST CARCINOGEN DOSE (STUDY DURATION:38 WK), Species: RAT, Strain/Sex: SPRAGUE-DAWLEY/FEMALE, Target Tissue: Type of Lesion: MAMMARY GLAND: CARCINOMA, Dose [Carcinogen]: 12.5 MG/KG BW ONCE): 30%, 9%, 70%, p<0.05
- tumour outcome (control, treated, inhibition, significance) (Carcinogen: 1-METHYL-1-NITROSOUREA, 684-93-5, Dose [Inhibitor]: 0, 0.06% IN DIET FOR DURATION OF STUDY BEGINNING 7 D POST CARCINOGEN DOSE (STUDY DURATION: 24 WK), Species: RAT, Strain/Sex: SPRAGUE-DAWLEY/FEMALE, Target Tissue: Type of Lesion: MAMMARY GLAND: ADENOCARCINOMA, Dose [Carcinogen]: 50 MG/KG ONCE): 93%, 87%, 6%, not significant
- tumour outcome (control, treated, inhibition, significance) (Carcinogen: 4-(METHYLNITROSAMINO)-1-(3-PYRIDYL)-1-BUTANONE, 64091-91-4, Dose [Inhibitor]: 0, 0.13 G/KG DIET (EFFECTIVE DOSE 0.95 UMOL/D) BEGINNING 2 WK PRIOR TO CARCINOGEN TREATMENT AND CONTINUING FOR DURATION, Species: MOUSE, Strain/Sex: STRAIN-A/FEMALE, Target Tissue: Type of Lesion: LUNG: TUMORS, Dose [Carcinogen]: 9.0-9.2 MG/MOUSE (TOTAL DOSE) IN DRINKING WATER ADMINISTERED OVER 7 WK): 28/28 (100%), 23/25 (92%), 8%, not significant
- tumour outcome (control, treated, inhibition, significance) (Carcinogen: 4-(METHYLNITROSAMINO)-1-(3-PYRIDYL)-1-BUTANONE, 64091-91-4, Dose [Inhibitor]: 0, 15 MG/KG BW IN DIET FOR DURATION OF STUDY BEGINNING 2 WK PRIOR TO CARCINOGEN TREATMENT (STUDY DURATION: 25 WK), Species: MOUSE, Strain/Sex: STRAIN-A/FEMALE, Target Tissue: Type of Lesion: LUNG: TUMOR, Dose [Carcinogen]: 9.1 MG/MOUSE (TOTAL DOSE) ADMINISTERED IN DRINKING WATER OVER 7 WK): 23/24 (96%), 25/25 (100%), -4%, not significant
- outcome (Carcinogen: 4-(METHYLNITROSAMINO)-1-(3-PYRIDYL)-1-BUTANONE, 64091-91-4, Dose [Inhibitor]: 0, 123 MG/KG DIET FOR 2 WK BEGINNING 2 WK PRIOR TO CARCINOGEN TREATMENT (STUDY DURATION: 18 WK), Species: MOUSE, Strain/Sex: STRAIN-A/FEMALE, Target Tissue: Type of Lesion: LUNG: TUMOR, Dose [Carcinogen]: 2 MG IN 0.5 ML 0.9% SALINE ONCE): 25/25 (100%), 20/20 (100%), o%, not significant
- outcome (Carcinogen: 4-(METHYLNITROSAMINO)-1-(3-PYRIDYL)-1-BUTANONE, 64091-91-4, Dose [Inhibitor]: 0, 123 MG/KG DIET FOR 18 WK BEGINNING 2 WK PRIOR TO CARCINOGEN TREATMENT (STUDY DURATION: 18 WK), Species: MOUSE, Strain/Sex: STRAIN-A/FEMALE, Target Tissue: Type of Lesion: LUNG: TUMOR, Dose [Carcinogen]: 2 MG IN 0.5 ML 0.9% SALINE ONCE): 25/25 (100%), 24/24 (100%), o%, not significant
- outcome (Carcinogen: 4-(METHYLNITROSAMINO)-1-(3-PYRIDYL)-1-BUTANONE, 64091-91-4, Dose [Inhibitor]: 0, 123 MG/KG DIET FOR 25 WK BEGINNING 2 WK PRIOR TO CARCINOGEN TREATMENT (STUDY DURATION: 25 WK), Species: MOUSE, Strain/Sex: STRAIN-A/FEMALE, Target Tissue: Type of Lesion: LUNG: TUMOR, Dose [Carcinogen]: 62.4 UG/ML IN DRINKING WATER FOR 7 WK FOR A CUMULATIVE DOSE OF 9.1 MG/MOUSE): 25/25 (100%), 24/24 (100%), o%, not significant
- tumour outcome (control, treated, inhibition, significance) (Carcinogen: 4-(METHYLNITROSAMINO)-1-(3-PYRIDYL)-1-BUTANONE, 64091-91-4, Dose [Inhibitor]: 0, 123 MG/KG IN DIET FOR 9 WK BEGINNING 2 WK PRIOR TO CARCINOGEN TREATMENT (STUDY DURATION: 25 WK), Species: MOUSE, Strain/Sex: STRAIN-A/FEMALE, Target Tissue: Type of Lesion: FORESTOMACH: TUMOR, Dose [Carcinogen]: 9.1 MG IN DRINKING WATER FOR 7 WK): 7/25 (28%), 2/25 (8%), 71%, not significant
- tumour outcome (control, treated, inhibition, significance) (Carcinogen: 4-(METHYLNITROSAMINO)-1-(3-PYRIDYL)-1-BUTANONE, 64091-91-4, Dose [Inhibitor]: 0, 123 MG/KG IN DIET FOR 16 WK BEGINNING POST CARCINOGEN TREATMENT (STUDY DURATION: 25 WK), Species: MOUSE, Strain/Sex: STRAIN-A/FEMALE, Target Tissue: Type of Lesion: FORESTOMACH: TUMOR, Dose [Carcinogen]: 9.1 MG IN DRINKING WATER FOR 7 WK): 7/25 (28%), 3/22 (14%), 50%, not significant
- tumour outcome (control, treated, inhibition, significance) (Carcinogen: 4-(METHYLNITROSAMINO)-1-(3-PYRIDYL)-1-BUTANONE, 64091-91-8, Dose [Inhibitor]: 0, 123 MG/KG IN DIET FOR 25 WK BEGINNING 2 WK PRIOR TO CARCINOGEN TREATMENT (STUDY DURATION: 25 WK), Species: MOUSE, Strain/Sex: STRAIN-A/FEMALE, Target Tissue: Type of Lesion: FORESTOMACH: TUMOR, Dose [Carcinogen]: 9.1 MG IN DRINKING WATER FOR 7 WK): 7/25 (28%), 1/25 (4%), 86%, p<0.05
- tumour outcome (control, treated, inhibition, significance) (Carcinogen: AZOXYMETHANE, 25843-45-2, Dose [Inhibitor]: 0, 160 PPM IN DIET FOR DURATION OF STUDY BEGINNING 2 WK PRIOR TO CARCINOGEN TREATMENT (STUDY DURATION: 54 WK), Species: RAT, Strain/Sex: F344/MALE, Target Tissue: Type of Lesion: COLON: ADENOCARCINOMA, Dose [Carcinogen]: 15 MG/KG BW 1/WK FOR 2 WK): 81%, 47%, 42%, p<0.01
- tumour outcome (control, treated, inhibition, significance) (Carcinogen: AZOXYMETHANE, 25843-45-2, Dose [Inhibitor]: 0, 320 PPM IN DIET FOR 38 WK BEGINNING 14 WK POST CARCINOGEN TREATMENT (STUDY DURATION: 54 WK), Species: RAT, Strain/Sex: F344/MALE, Target Tissue: Type of Lesion: COLON: ADENOCARCINOMA, Dose [Carcinogen]: 15 MG/KG BW 1/WK FOR 2 WK): 81%, 26%, 68%, p<0.0001
- tumour outcome (control, treated, inhibition, significance) (Carcinogen: AZOXYMETHANE, 25843-45-2, Dose [Inhibitor]: 0, 320 PPM IN DIET FOR DURATION OF STUDY BEGINNING 2 WK PRIOR TO CARCINOGEN TREATMENT (STUDY DURATION: 54 WK), Species: RAT, Strain/Sex: F344/MALE, Target Tissue: Type of Lesion: COLON: ADENOCARCINOMA, Dose [Carcinogen]: 15 MG/KG BW 1/WK FOR 2 WK): 81%, 36%, 56%, p<0.0001
- tumour outcome (control, treated, inhibition, significance) (Carcinogen: AZOXYMETHANE, 25843-45-2, Dose [Inhibitor]: 0, 400 PPM IN DIET FOR 29 WK BEGINNING 1 WK POST CARCINOGEN TREATMENT (STUDY DURATION: 32 WK), Species: RAT, Strain/Sex: F344/MALE, Target Tissue: Type of Lesion: COLON: ADENOMA, Dose [Carcinogen]: 15 MG/KG BW 1/WK FOR 2 WK): 77%, 30%, 61%, p<0.05
- tumour outcome (control, treated, inhibition, significance) (Carcinogen: AZOXYMETHANE, 25843-45-2, Dose [Inhibitor]: 0, 400 PPM IN DIET FOR 29 WK BEGINNING 1 WK POST CARCINOGEN TREATMENT (STUDY DURATION: 32 WK), Species: RAT, Strain/Sex: F344/MALE, Target Tissue: Type of Lesion: COLON: CARCINOMA, Dose [Carcinogen]: 15 MG/KG BW 1/WK FOR 2 WK): 53%, 13%, 75%, p<0.05
- tumour outcome (control, treated, inhibition, significance) (Carcinogen: N-BUTYL-N-(4-HYDROXYBUTYL)NITROSAMINE, 3817-11-6, Dose [Inhibitor]: 0, 200 MG/KG DIET FOR 24 WK BEGINNING 1 WK PRIOR TO CARCINOGEN TREATMENT (STUDY DURATION: 24 WK), Species: MOUSE, Strain/Sex: BDF/MALE, Target Tissue: Type of Lesion: URINARY BLADDER: TRANSITIONAL CELL CARCINOMA, Dose [Carcinogen]: 7.5 MG 1/WK FOR 8 WK): 20/74 (27%), 6/73 (8%), 70%, p<0.01
- tumour outcome (control, treated, inhibition, significance) (Carcinogen: N-BUTYL-N-(4-HYDROXYBUTYL)NITROSAMINE, 3817-11-6, Dose [Inhibitor]: 0, 400 MG/KG DIET FOR 24 WK BEGINNING 1 WK PRIOR TO CARCINOGEN TREATMENT (STUDY DURATION: 24 WK), Species: MOUSE, Strain/Sex: BDF/MALE, Target Tissue: Type of Lesion: URINARY BLADDER: TRANSITIONAL CELL CARCINOMA, Dose [Carcinogen]: 7.5 MG 1/WK FOR 8 WK): 20/74 (27%), 2/75 (3%), 89%, p<0.01
- tumour outcome (control, treated, inhibition, significance) (Carcinogen: N-NITROSOMETHYLBENZYLAMINE, 937-40-6, Dose [Inhibitor]: 0, 125 PPM IN DIET FOR DURATION OF STUDY BEGINNING 1 WK POST CARCINOGEN TREATMENT (STUDY DURATION: 25 WK), Species: RAT, Strain/Sex: F344/MALE, Target Tissue: Type of Lesion: ESOPHAGUS: TUMOR, Dose [Carcinogen]: 1 MG/KG 3/WK FOR 5 WK): 15/15 (100%), 14/15 (93%), 7%, not significant
- tumour outcome (control, treated, inhibition, significance) (Carcinogen: N-NITROSOMETHYLBENZYLAMINE, 937-40-6, Dose [Inhibitor]: 0, 125 PPM IN DIET FOR DURATION OF STUDY BEGINNING 2 WK PRIOR TO CARCINOGEN TREATMENT (STUDY DURATION: 25 WK), Species: RAT, Strain/Sex: F344/MALE, Target Tissue: Type of Lesion: ESOPHAGUS: TUMOR, Dose [Carcinogen]: 1 MG/KG 3/WK FOR 5 WK): 15/15 (100%), 14/15 (93%), 7%, not significant
